Here are results for 4 molecules from paper PMC8348589, “Scarlet Flax Linum grandiflorum (L.) In Vitro Cultures as a New Source of Antioxidant and Anti-Inflammatory Lignans” (Molecules, 2021).

Test [1] deals with T1, COX-1 (Ovis aries, UniProt P05979).
T1 sequence (P05979 25-600): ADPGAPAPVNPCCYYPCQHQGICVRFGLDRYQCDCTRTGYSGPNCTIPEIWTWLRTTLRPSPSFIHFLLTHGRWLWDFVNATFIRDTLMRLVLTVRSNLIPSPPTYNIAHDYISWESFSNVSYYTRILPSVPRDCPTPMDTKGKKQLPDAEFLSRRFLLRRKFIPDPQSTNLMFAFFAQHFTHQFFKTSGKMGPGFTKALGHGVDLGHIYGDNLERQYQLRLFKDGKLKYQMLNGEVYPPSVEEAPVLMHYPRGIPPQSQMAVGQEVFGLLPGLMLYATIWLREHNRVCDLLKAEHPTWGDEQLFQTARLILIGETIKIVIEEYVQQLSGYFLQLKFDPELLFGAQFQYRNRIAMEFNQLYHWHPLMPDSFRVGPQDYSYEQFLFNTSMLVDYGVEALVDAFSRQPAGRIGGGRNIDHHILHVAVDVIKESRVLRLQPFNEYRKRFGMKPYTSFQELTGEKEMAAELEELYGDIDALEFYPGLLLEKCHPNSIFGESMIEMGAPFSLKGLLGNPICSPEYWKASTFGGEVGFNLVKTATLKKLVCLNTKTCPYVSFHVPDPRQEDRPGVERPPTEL
The test can be described thus: COX-1 inhibition assay (Cayman Chem kit).
Procedure: (§2) COX-1 (Ovine) and COX-2 (Human) inhibition assays were performed using the corresponding Cayman Chem kits. The assays were performed according to the manufacturer’s instructions. Arachidonic acid (1.1 mM) was used as substrate. Reaction was followed at 590 nm in a BioTek Instrument Synergy II microplate reader.

The target of test [2] is T2, COX-2 (Homo sapiens, UniProt P35354).
T2 sequence (P35354 18-604): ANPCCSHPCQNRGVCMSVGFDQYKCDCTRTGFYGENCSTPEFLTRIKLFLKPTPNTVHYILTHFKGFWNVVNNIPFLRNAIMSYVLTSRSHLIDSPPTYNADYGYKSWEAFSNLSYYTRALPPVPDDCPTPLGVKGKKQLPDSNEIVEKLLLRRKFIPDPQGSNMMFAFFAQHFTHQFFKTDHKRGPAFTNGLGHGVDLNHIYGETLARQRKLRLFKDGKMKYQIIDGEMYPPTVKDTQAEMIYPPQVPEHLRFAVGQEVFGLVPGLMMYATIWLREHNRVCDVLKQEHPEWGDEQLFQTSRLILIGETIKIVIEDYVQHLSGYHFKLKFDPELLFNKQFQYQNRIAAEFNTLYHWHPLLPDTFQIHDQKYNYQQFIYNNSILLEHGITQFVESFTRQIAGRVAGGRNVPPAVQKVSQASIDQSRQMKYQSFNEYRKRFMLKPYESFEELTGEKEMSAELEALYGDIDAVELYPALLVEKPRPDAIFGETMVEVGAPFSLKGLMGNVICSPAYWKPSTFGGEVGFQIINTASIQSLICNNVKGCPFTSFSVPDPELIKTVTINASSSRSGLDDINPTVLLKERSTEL
The test can be described thus: COX-2 inhibition assay (Cayman Chem kit).
Procedure: as §2

In test [3] the test system is L. grandiflorum callus cultures. The test can be described thus: Biomass accumulation of callus cultures. The class given is cell-based, Linum grandiflorum. To be noted: harvested day 30. How it is done:
(§1) Both the cotyledon (0.5 cm) and hypocotyl (1.0 cm) explants of L. grandiflorum of 5-day old seedlings, grown in vitro, were employed as the source of the explants and inoculated on three different experimental media containing sucrose (30g/L), agar (8 g/L) along with various concentrations of α-naphthaleneacetic acid (NAA: 0.1, 1.0, 2.5, 5.0, 10 mg/L), thidiazuron (TDZ: 0.1, 1.0, 2.5, 5.0, 10 mg/L) and a combination of both (TDZ: 0.1, 1.0, 2.5, 5.0, 10 mg/L and NAA: 0.1 mg/L constant) and placed in a growth room at 25 ± 2 °C temperature, using light intensity of 40 μmol/m^2/s at around a 16/8 h (light/dark) photoperiod. Four explants were inoculated for each condition. All experiments were conducted twice for each treatment. Media without PGRs addition were used as controls. The cultures were harvested at day 30 after inoculation. Biomass determination (fresh weights (FW) and dried weight (DW)) were determined for each condition. For dry weight (DW) estimation, cells were frozen and lyophilized 48 h.

The test system of test [4] is L. grandiflorum hypocotyl and cotyledon explants. As to the kind of experiment: Callus induction frequency on MS medium with PGRs. In kind it is cell-based, Linum grandiflorum. To be noted: 1.0 mg/L NAA. How it is done:
as §1

Where [5] appears, read: read-out: COX-1 IC50 (in µM), purified (neo)lignans.
The mark [6] stands for this setting: read-out: COX-2 IC50 (in µM), purified (neo)lignans.

Where “and” joins values, the source holds several entries; their conditions need not be identical. Equal values may be shown once. Read-outs that look alike come from different tables or passages of the source.

The IC50 is the concentration at which inhibition is half-maximal. Consider `COc1cc(C[C@H]2CO[C@H](c3ccc(O)c(OC)c3)[C@H]2CO)ccc1O` [LARI, lariciresinol], for which the IC50 turned out to be 24.2 ± 6.9 µM in test [1] and 34.6 ± 2.9 µM in test [2].
Consider `COc1cc(C[C@@H](CO)[C@H](CO)Cc2ccc(O)c(OC)c2)ccc1O` [SECO, secoisolariciresinol], for which the IC50 in test [1] (setting [5]) worked out at 21.7 ± 1.9 µM; in test [2] (setting [6]) it was 32.7 ± 0.8 µM.
Turning to `O=C(O)Cc1cccc2ccccc12` [NAA, α-naphthalene acetic acid], the “biomass accumulation (DW)” value worked out at 11.4 g/L in test [3] (cotyledon-derived callus, 1.0 mg/L NAA) and 13 g/L in test [3] (hypocotyl-derived callus). In addition, the callus induction frequency was 87% in test [4] (cotyledon explants); 95% and 95.2% in test [4] (hypocotyl explants).
For `COc1cc(C2Oc3c(OC)cc(/C=C/CO)cc3C2CO)ccc1O` (stereo not shown) [DCA, dehydrodiconiferyl alcohol], the IC50 in test [1] (setting [5]) worked out at 51.3 ± 0.3 µM; in test [2] (setting [6]), 19.2 ± 2.5 µM.
